{"source": "PubChem BioAssay (NCI)", "assay_in_all_cases": "NCI tumour cell line growth inhibition, 48 h", "key": {"SR leukemia": {"tested_on": "SR leukemia"}, "NCI-H522 lung": {"tested_on": "NCI-H522 lung"}, "NCI-H226 lung": {"tested_on": "NCI-H226 lung"}, "UACC-62 melanoma": {"tested_on": "UACC-62 melanoma"}, "HCC-2998 colon": {"tested_on": "HCC-2998 colon"}, "HCT-116 colon": {"tested_on": "HCT-116 colon"}, "HT29 colon": {"tested_on": "HT29 colon"}, "SNB-75 CNS": {"tested_on": "SNB-75 CNS"}, "MDA-MB-231 breast": {"tested_on": "MDA-MB-231 breast"}, "ACHN renal": {"tested_on": "ACHN renal"}, "HL-60(TB) leukemia": {"tested_on": "HL-60(TB) leukemia"}, "LOX IMVI melanoma": {"tested_on": "LOX IMVI melanoma"}, "OVCAR-5 ovarian": {"tested_on": "OVCAR-5 ovarian"}, "NCI-H23 lung": {"tested_on": "NCI-H23 lung"}, "CAKI-1 renal": {"tested_on": "CAKI-1 renal"}, "K-562 leukemia": {"tested_on": "K-562 leukemia"}, "U251 CNS": {"tested_on": "U251 CNS"}, "EKVX NSCLC": {"tested_on": "EKVX NSCLC"}, "MCF7 breast": {"tested_on": "MCF7 breast"}, "OVCAR-8 ovarian": {"tested_on": "OVCAR-8 ovarian"}, "MALME-3M melanoma": {"tested_on": "MALME-3M melanoma"}, "OVCAR-4 ovarian": {"tested_on": "OVCAR-4 ovarian"}, "SW-620 colon": {"tested_on": "SW-620 colon"}, "HS 578T breast": {"tested_on": "HS 578T breast"}, "SF-268 CNS": {"tested_on": "SF-268 CNS"}, "T-47D breast": {"tested_on": "T-47D breast"}, "HOP-62 NSCLC": {"tested_on": "HOP-62 NSCLC"}, "SNB-19 CNS": {"tested_on": "SNB-19 CNS"}, "MOLT-4 leukemia": {"tested_on": "MOLT-4 leukemia"}, "BT-549 breast": {"tested_on": "BT-549 breast"}}, "note": "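Results reflect a 48-hour exposure of cells in 96-well plates to compound at five concentrations. GI50 = concentration required for 50% inhibition of growth. TGI: concentration producing complete growth inhibition.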"}
{"compound": "O=C(N/N=C/c1c[nH]c2ccccc12)Nc1ccccc1Cl", "values": [{"measurement": "GI50", "setting": "SR leukemia", "result": 41.1, "unit": "nM"}, {"measurement": "TGI", "setting": "SR leukemia", "result": 12900, "unit": "nM"}, {"measurement": "GI50", "setting": "NCI-H522 lung", "result": 42.2, "unit": "nM"}, {"measurement": "TGI", "setting": "NCI-H522 lung", "result": 328, "unit": "nM"}, {"measurement": "GI50", "setting": "NCI-H226 lung", "result": 1690, "unit": "nM"}, {"measurement": "TGI", "setting": "NCI-H226 lung", "result": 19600, "unit": "nM"}, {"measurement": "GI50", "setting": "UACC-62 melanoma", "result": 148, "unit": "nM"}, {"measurement": "TGI", "setting": "UACC-62 melanoma", "result": 4700, "unit": "nM"}, {"measurement": "GI50", "setting": "HCC-2998 colon", "result": 608, "unit": "nM"}, {"measurement": "TGI", "setting": "HCC-2998 colon", "result": 3490, "unit": "nM"}, {"measurement": "GI50", "setting": "HCT-116 colon", "result": 70.9, "unit": "nM"}, {"measurement": "TGI", "setting": "HCT-116 colon", "result": 3820, "unit": "nM"}, {"measurement": "GI50", "setting": "HT29 colon", "result": 119, "unit": "nM"}, {"measurement": "TGI", "setting": "HT29 colon", "result": 986, "unit": "nM"}, {"measurement": "GI50", "setting": "SNB-75 CNS", "result": 232, "unit": "nM"}, {"measurement": "TGI", "setting": "SNB-75 CNS", "result": 2640, "unit": "nM"}, {"measurement": "GI50", "setting": "MDA-MB-231 breast", "result": 508, "unit": "nM"}, {"measurement": "TGI", "setting": "MDA-MB-231 breast", "result": 4930, "unit": "nM"}, {"measurement": "GI50", "setting": "ACHN renal", "result": 665, "unit": "nM"}, {"measurement": "TGI", "setting": "ACHN renal", "result": 14600, "unit": "nM"}, {"measurement": "GI50", "setting": "HL-60(TB) leukemia", "result": 102, "unit": "nM"}, {"measurement": "TGI", "setting": "HL-60(TB) leukemia", "result": 2630, "unit": "nM"}, {"measurement": "GI50", "setting": "LOX IMVI melanoma", "result": 274, "unit": "nM"}, {"measurement": "TGI", "setting": "LOX IMVI melanoma", "result": 10600, "unit": "nM"}, {"measurement": "GI50", "setting": "OVCAR-5 ovarian", "result": 670, "unit": "nM"}, {"measurement": "TGI", "setting": "OVCAR-5 ovarian", "result": 13100, "unit": "nM"}, {"measurement": "GI50", "setting": "NCI-H23 lung", "result": 424, "unit": "nM"}, {"measurement": "TGI", "setting": "NCI-H23 lung", "result": 6890, "unit": "nM"}, {"measurement": "GI50", "setting": "CAKI-1 renal", "result": 257, "unit": "nM"}, {"measurement": "TGI", "setting": "CAKI-1 renal", "result": 13800, "unit": "nM"}, {"measurement": "GI50", "setting": "K-562 leukemia", "result": 39.1, "unit": "nM"}, {"measurement": "TGI", "setting": "K-562 leukemia", "result": "> 33800", "unit": "nM"}, {"measurement": "GI50", "setting": "U251 CNS", "result": 288, "unit": "nM"}, {"measurement": "TGI", "setting": "U251 CNS", "result": 11100, "unit": "nM"}, {"measurement": "GI50", "setting": "EKVX NSCLC", "result": 500, "unit": "nM"}, {"measurement": "TGI", "setting": "EKVX NSCLC", "result": 13000, "unit": "nM"}, {"measurement": "GI50", "setting": "MCF7 breast", "result": 230, "unit": "nM"}, {"measurement": "TGI", "setting": "MCF7 breast", "result": 14300, "unit": "nM"}, {"measurement": "GI50", "setting": "OVCAR-8 ovarian", "result": 401, "unit": "nM"}, {"measurement": "TGI", "setting": "OVCAR-8 ovarian", "result": 5760, "unit": "nM"}, {"measurement": "GI50", "setting": "MALME-3M melanoma", "result": 239, "unit": "nM"}, {"measurement": "TGI", "setting": "MALME-3M melanoma", "result": 16000, "unit": "nM"}, {"measurement": "GI50", "setting": "OVCAR-4 ovarian", "result": 2780, "unit": "nM"}, {"measurement": "TGI", "setting": "OVCAR-4 ovarian", "result": 29700, "unit": "nM"}, {"measurement": "GI50", "setting": "SW-620 colon", "result": 117, "unit": "nM"}, {"measurement": "TGI", "setting": "SW-620 colon", "result": 16000, "unit": "nM"}, {"measurement": "GI50", "setting": "HS 578T breast", "result": 285, "unit": "nM"}, {"measurement": "TGI", "setting": "HS 578T breast", "result": 15000, "unit": "nM"}, {"measurement": "GI50", "setting": "SF-268 CNS", "result": 844, "unit": "nM"}, {"measurement": "TGI", "setting": "SF-268 CNS", "result": 15000, "unit": "nM"}, {"measurement": "GI50", "setting": "T-47D breast", "result": 386, "unit": "nM"}, {"measurement": "TGI", "setting": "T-47D breast", "result": 26600, "unit": "nM"}, {"measurement": "GI50", "setting": "HOP-62 NSCLC", "result": 427, "unit": "nM"}, {"measurement": "TGI", "setting": "HOP-62 NSCLC", "result": 15600, "unit": "nM"}, {"measurement": "GI50", "setting": "SNB-19 CNS", "result": 590, "unit": "nM"}, {"measurement": "TGI", "setting": "SNB-19 CNS", "result": 16800, "unit": "nM"}, {"measurement": "GI50", "setting": "MOLT-4 leukemia", "result": 264, "unit": "nM"}, {"measurement": "TGI", "setting": "MOLT-4 leukemia", "result": 12600, "unit": "nM"}, {"measurement": "GI50", "setting": "BT-549 breast", "result": 311, "unit": "nM"}]}
